Assays:
[1] = test system: HT1080 cells infected with R3616; test: MEK inhibitor study: R3616 yield in HT1080 cells with PD98059 or DMSO; format: cell-based, human
Protocol: (§1) Inhibitor studies—For experiments employing the known MEK inhibitor, PD98059, HT1080 cells were starved over night in serum-free medium and then exposed to 40 μM of PD98059 (EMD Biosciences, San Diego, Calif.), or DMSO (1:1000 dilution) 6 hours prior to, and during, infection. At 12 hours post-infection, whole cell lysates were created as described above for immunoblotting.
Finally, to determine if MEK inhibition affects viral replication, DMSO or PD98059 (40 μM) was added to replicate cultures of HT1080 cells 6 hours prior to, and during, infection with R3616 (1 PFU/cell).

[2] = test system: HT1080 cells infected with R3616; test: MEK inhibitor study: immunoblotting of viral proteins and phospho-PKR; format: cell-based, human
Protocol: as §1
To determine if MEK mediates the observed mutant Ras-dependent suppression of PKR activation and resultant accumulation of viral proteins in HT1080 cells infected with mutant virus R3616, the relative expressions of representative a (ICP27), β (U142) and γ2 (glycoprotein C) viral proteins in cells treated with a specific chemical inhibitor of MEK-1 (PD98059) were compared. Replicate cultures of HT1080 cells were serum-starved overnight prior to exposure to equal volumes of DMSO or PD98059 (40 μM) for 6 hours prior to infection with R3616 mutant virus (10 PFU/cell). DMSO or drug treatment was then continued until the cells were harvested at 12 hours post-infection. The cells were then lysed and the lysates were subjected to electrophoresis in denaturing polyacrylamide gels, followed by transferring to PVDF membranes and reacting with antibody to ICP27, UL42, or gC. […] To test whether the decrease in the accumulation of gC correlated with activation of PKR, the electrophoretically separated lysates were also probed with antibody to the auto-phosphorylated form of PKR (P-Thr446). The presence of PD98059 prior to, and during, infection with R3616 […] the amount of activated PKR in HT1080 cells (FIG. 6, panel B).

[3] = PD98059 40 μM, R3616 10 PFU/cell, 12 hours post-infection

COc1cccc(-c2cc(=O)c3ccccc3o2)c1N [PD98059]
yield of R3616 lower than in the presence of DMSO ([1]; PD98059 40 μM): approximately 15 fold
yield of R3616 mutant virus ([1]; in the presence of PD98059 40 μM, 6 hours prior to and during infection, 1 PFU/cell, 36 hours): 1.67×10^5 PFU/ml
amount of activated PKR (P-Thr446) ([2]; PD98059 40 μM prior to and during infection with R3616): increased
accumulation of ICP27 and UL42 proteins [2, 3]: slight effect
amounts of gC that accumulated [2, 3]: very dramatic decrease
